In US20240116892A1, “HETEROCYCLIC AMIDE AND UREA COMPOUNDS AS JAK2 INHIBITORS” (Ajax Therapeutics, Inc., priority 2022, published 2024) one finds Kd data, which are given here for 23 compounds.

The target of the test is JAK2 (JH1 domain-catalytic, Y1007F, Y1008F) kinase (Homo sapiens (Human), UniProt O60674, Y1007F/Y1008F). The experiment in a line: JAK2 JH1 Domain Binding Assay. The conditions noted are these: qPCR readout. Here is the method:
JAK2 (JH1 domain-catalytic, Y1007F, Y1008F) kinase was expressed as N-terminal fusion to the DNA binding domain of NFkB in transiently transfected HEK293 cells and subsequently tagged with DNA for qPCR detection. Streptavidin-coated magnetic beads were treated with biotinylated small molecule ligands for 30 minutes at room temperature to generate affinity resins for kinase assays. The liganded beads were blocked with excess biotin and washed with blocking buffer (SeaBlock (Pierce), 1% BSA, 0.05% Tween 20, 1 mmol/L DTT) to remove unbound ligand and to reduce nonspecific phage binding. Binding reactions were assembled by combining kinases, liganded affinity beads, and test compounds in 1× binding buffer (1× PBS, 0.05% Tween 20, 0.1% BSA, 1 mmol/L DTT). Test compound was prepared as 111× stocks in 100% DMSO and directly diluted into the assay wells. All reactions were performed in polypropylene 384-well plates in a final volume of 0.02 mL. The assay plates were incubated at room temperature with shaking for 1 hour and the affinity beads were washed with wash buffer (1× PBS, 0.05% Tween 20). The beads were then re-suspended in elution buffer (1× PBS, 0.05% Tween 20, 0.5 μmol/L non-biotinylated affinity ligand) and incubated at room temperature with shaking for 30 minutes. The kinase concentration in the eluate was measured by qPCR.

Bounds are passed on as bounds.

Sequence of JAK2 (JH1 domain-catalytic, Y1007F, Y1008F) kinase (O60674 849-1124 Y1007F/Y1008F): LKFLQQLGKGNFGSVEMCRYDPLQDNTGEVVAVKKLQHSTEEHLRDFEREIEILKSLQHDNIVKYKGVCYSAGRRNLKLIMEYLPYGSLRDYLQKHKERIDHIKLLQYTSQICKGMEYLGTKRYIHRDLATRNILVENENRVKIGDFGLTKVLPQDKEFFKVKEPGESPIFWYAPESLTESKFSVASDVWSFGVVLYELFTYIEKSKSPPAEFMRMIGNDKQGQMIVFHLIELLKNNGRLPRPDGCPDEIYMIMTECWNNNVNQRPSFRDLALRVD

`CN(C(=O)Nc1cc(C(F)(F)F)cn(C)c1=O)C12CC(c3cnc4[nH]nc(OC5CCOC5)c4c3)(C1)C2` (mixture of isomers) [Example I-166, (S)-1-methyl-3-(1-methyl-2-oxo-5-(trifluoromethyl)-1,2-dihydropyridin-3-yl)-1-(3-(3-((tetrahydrofuran-3-yl)oxy)-1H-pyrazolo[3,4-b]pyridin-5-yl)bicyclo[1.1.1]pentan-1-yl)urea and (R)-1-methyl-3-(1-methyl-2-oxo-5-(trifluoromethyl)-1,2-dihydropyridin-3-yl)-1-(3-(3-((tetrahydrofuran-3-yl)oxy)-1H-pyrazolo[3,4-b]pyridin-5-yl)bicyclo[1.1.1]pentan-1-yl)urea] yielded a Kd of less than 10 nM.

Turning to `CN(C(=O)Nc1cc(C(F)(F)F)cn(C)c1=O)C1CCN(c2cnc3[nH]c(C4CC4)cc3n2)CC1` [Example I-25, 1-(1-(6-cyclopropyl-5H-pyrrolo[2,3-b]pyrazin-2-yl)piperidin-4-yl)-1-methyl-3-(1-methyl-2-oxo-5-(trifluoromethyl)-1,2-dihydropyridin-3-yl)urea], the Kd was less than 10 nM.

In turn, `CN(C(=O)Nc1cc(C(F)(F)F)cn(C)c1=O)C12CC(c3cnc4[nH]ncc4c3)(C1)C2` [Example I-116, 1-(3-(1H-pyrazolo[3,4-b]pyridin-5-yl)bicyclo[1.1.1]pentan-1-yl)-1-methyl-3-(1-methyl-2-oxo-5-(trifluoromethyl)-1,2-dihydropyridin-3-yl)urea] displayed a Kd of less than 10 nM.

Regarding `Cn1cc(C(F)(F)F)cc(NC(=O)N2CCCC23CCN(c2cnc4[nH]ncc4c2)CC3)c1=O` [Example I-50, N-(1-methyl-2-oxo-5-(trifluoromethyl)-1,2-dihydropyridin-3-yl)-8-(1H-pyrazolo[3,4-b]pyridin-5-yl)-1,8-diazaspiro[4.5]decane-1-carboxamide], the Kd lay in the range of 10 to 50 nM.

Turning to `CN(C(=O)Nc1cc(C(F)(F)F)cn(C)c1=O)[C@@H]1CCN(c2cnc3[nH]nc(OC4CCOCC4)c3c2)C[C@H]1F` [Example I-114-b, 1-((3R,4R)-3-fluoro-1-(3-((tetrahydro-2H-pyran-4-yl)oxy)-1H-pyrazolo[3,4-b]pyridin-5-yl)piperidin-4-yl)-1-methyl-3-(1-methyl-2-oxo-5-(trifluoromethyl)-1,2-dihydropyridin-3-yl)urea], the Kd was less than 10 nM.

`Cc1cc2nc(N3CCC(N(C)C(=O)Nc4cc(C(F)(F)F)cn(C)c4=O)CC3)cnc2[nH]1` [Example I-31, 1-methyl-3-(1-methyl-2-oxo-5-(trifluoromethyl)-1,2-dihydropyridin-3-yl)-1-(1-(6-methyl-5H-pyrrolo[2,3-b]pyrazin-2-yl)piperidin-4-yl)urea]: the Kd was less than 10 nM.

`CN(C(=O)Nc1cc(C(F)(F)F)ccn1)[C@H]1CCN(c2cnc3[nH]ncc3c2)CC1(F)F` (mixture of isomers) [Example I-146-b, (R)-1-(3,3-difluoro-1-(1H-pyrazolo[3,4-b]pyridin-5-yl)piperidin-4-yl)-1-methyl-3-(4-(trifluoromethyl)pyridin-2-yl)urea and (S)-1-(3,3-difluoro-1-(1H-pyrazolo[3,4-b]pyridin-5-yl)piperidin-4-yl)-1-methyl-3-(4-(trifluoromethyl)pyridin-2-yl)urea] registered a Kd of less than 10 nM.

`COc1n[nH]c2ncc(N3CCC(N(C)C(=O)Nc4cc(C5CC5)cn([C@H]5CCCOC5)c4=O)CC3)cc12` [Example I-136-a, (S)-3-(5-cyclopropyl-2-oxo-1-(tetrahydro-2H-pyran-3-yl)-1,2-dihydropyridin-3-yl)-1-(1-(3-methoxy-1H-pyrazolo[3,4-b]pyridin-5-yl)piperidin-4-yl)-1-methylurea] returned a Kd of less than 10 nM.

`COc1c[nH]c2ncc(N3CCC(N(C)C(=O)Nc4cc(C(F)(F)F)cn(C)c4=O)CC3)cc12` [Example I-94, 1-(1-(3-methoxy-1H-pyrrolo[2,3-b]pyridin-5-yl)piperidin-4-yl)-1-methyl-3-(1-methyl-2-oxo-5-(trifluoromethyl)-1,2-dihydropyridin-3-yl)urea] returned a Kd of less than 10 nM.

With `COCCOc1n[nH]c2ncc(N3CC[C@@H](N(C)C(=O)Nc4cc(C(F)(F)F)cn(C)c4=O)[C@@H](F)C3)cc12` [Example I-104-a, 1-((3S,4R)-3-fluoro-1-(3-(2-methoxyethoxy)-1H-pyrazolo[3,4-b]pyridin-5-yl)piperidin-4-yl)-1-methyl-3-(1-methyl-2-oxo-5-(trifluoromethyl)-1,2-dihydropyridin-3-yl)urea], the Kd was less than 10 nM.

Regarding `COc1n[nH]c2ncc(N3CC[C@@H](N(C)C(=O)Nc4cc(C(F)(F)F)cn(C)c4=O)[C@@H](OC)C3)cc12` [Example I-106-a, 1-((3S,4R)-3-methoxy-1-(3-methoxy-1H-pyrazolo[3,4-b]pyridin-5-yl)piperidin-4-yl)-1-methyl-3-(1-methyl-2-oxo-5-(trifluoromethyl)-1,2-dihydropyridin-3-yl)urea], the dissociation constant Kd was less than 10 nM.

Compound `CN(C(=O)Nc1cc(C(F)(F)F)cn(C)c1=O)C1CCCN(c2cnc3[nH]ccc3n2)CC1` (single isomer, unassigned) [Example I-41-b, (S)- or (R)-1-(1-(5H-pyrrolo[2,3-b]pyrazin-2-yl)azepan-4-yl)-1-methyl-3-(1-methyl-2-oxo-5-(trifluoromethyl)-1,2-dihydropyridin-3-yl)urea] came in with a Kd of 50 to 1000 nM.

Compound `CN(C(=O)Nc1cc(C(F)(F)F)cn(C)c1=O)C1CCN(c2cnc3cncn3c2)CC1` [Example I-91, 1-(1-(imidazo[1,5-a]pyrimidin-3-yl)piperidin-4-yl)-1-methyl-3-(1-methyl-2-oxo-5-(trifluoromethyl)-1,2-dihydropyridin-3-yl)urea] gave a Kd of 50 to 1000 nM.

In turn, `CN(C(=O)Nc1cc(C(C)(C)C)n([C@H]2CCOC2)n1)C1CCN(c2cnc3[nH]ncc3c2)CC1` [Example I-174, (S)-1-(1-(1H-pyrazolo[3,4-b]pyridin-5-yl)piperidin-4-yl)-3-(5-(tert-butyl)-1-(tetrahydrofuran-3-yl)-1H-pyrazol-3-yl)-1-methylurea] had a Kd of less than 10 nM.

In the case of `CN1CCC(c2n[nH]c3ncc(N4CC[C@H](N(C)C(=O)Nc5cc(C(F)(F)F)cn(C)c5=O)C(F)(F)C4)cc23)CC1` (single isomer, unassigned) [Example I-122-a], the Kd is less than 10 nM.

As to `Cc1cc(NC(=O)N(C)C2CCN(c3cnc4[nH]ccc4n3)CC2)cc(C(F)(F)F)c1` [Example I-11, 1-(1-(5H-pyrrolo[2,3-b]pyrazin-2-yl)piperidin-4-yl)-1-methyl-3-(3-methyl-5-(trifluoromethyl)phenyl)urea], the Kd was less than 10 nM.

In turn, `CN(C(=O)Nc1cc(C(F)(F)F)cn(C)c1=O)C12CC(c3cnc4[nH]nc(OC[C@H]5COCCO5)c4c3)(C1)C2` [Example I-158, (R)-1-(3-(3-((1,4-dioxan-2-yl)methoxy)-1H-pyrazolo[3,4-b]pyridin-5-yl)bicyclo[1.1.1]pentan-1-yl)-1-methyl-3-(1-methyl-2-oxo-5-(trifluoromethyl)-1,2-dihydropyridin-3-yl)urea] displayed a Kd of less than 10 nM.

Consider `CN(C(=O)Nc1cc(C(F)(F)F)cn(C)c1=O)[C@H]1CCN(c2cnc3[nH]ncc3n2)C[C@H]1F` [Example I-83-a, 1-((3R,4S)-3-fluoro-1-(1H-pyrazolo[3,4-b]pyrazin-5-yl)piperidin-4-yl)-1-methyl-3-(1-methyl-2-oxo-5-(trifluoromethyl)-1,2-dihydropyridin-3-yl)urea], for which the Kd was less than 10 nM.

For the compound `CN(C(=O)Nc1cc(C(F)(F)F)ccn1)[C@H]1CCN(c2cnc3[nH]ncc3c2)C[C@@H]1F` [Example I-176, 1-((3S,4S)-3-fluoro-1-(1H-pyrazolo[3,4-b]pyridin-5-yl)piperidin-4-yl)-1-methyl-3-(4-(trifluoromethyl)pyridin-2-yl)urea], the Kd is less than 10 nM.

`Cc1c[nH]c2ncc(N3CCC(N(C)C(=O)Nc4cc(C(F)(F)F)cn(C)c4=O)C(F)(F)C3)nc12` (single isomer, unassigned) [Example I-33-a, (R)- or (S)-1-(3,3-difluoro-1-(7-methyl-5H-pyrrolo[2,3-b]pyrazin-2-yl)piperidin-4-yl)-1-methyl-3-(1-methyl-2-oxo-5-(trifluoromethyl)-1,2-dihydropyridin-3-yl)urea] gave a Kd of less than 10 nM.

`CN(C(=O)Nc1cc(C(F)(F)F)cn(C)c1=O)[C@@H]1CCN(c2cnc3cn[nH]c3c2)C[C@@H]1F` [Example I-95-b, 1-((3S,4R)-3-fluoro-1-(1H-pyrazolo[4,3-b]pyridin-6-yl)piperidin-4-yl)-1-methyl-3-(1-methyl-2-oxo-5-(trifluoromethyl)-1,2-dihydropyridin-3-yl)urea] registered a Kd of less than 10 nM.

`CN(C(=O)Nc1cc(C(F)(F)F)cn(C)c1=O)[C@@H]1CC=C(c2cnc3[nH]ccc3n2)CC1` (single isomer, unassigned) [Example I-82-a] showed a Kd of less than 10 nM.

As to `CN(C(=O)Nc1cc(C(F)(F)F)cn(C)c1=O)[C@@H]1CCN(c2cnc3[nH]n(C)c(=O)c3c2)CC1(F)F` [Example I-96-a, (R)-1-(3,3-difluoro-1-(2-methyl-3-oxo-2,3-dihydro-1H-pyrazolo[3,4-b]pyridin-5-yl)piperidin-4-yl)-1-methyl-3-(1-methyl-2-oxo-5-(trifluoromethyl)-1,2-dihydropyridin-3-yl)urea], the Kd fell in the range of 10 to 50 nM.
